Measured values taken from patent publication EP4257130A1, “INOBRODIB FOR USE IN THE TREATMENT OF PULMONARY ARTERIAL HYPERTENSION” (Justus-Liebig-Universität Gießen, priority 2022, dated 2023).

How the values were obtained:
[1] = system: PAH-FBs; test: Cell proliferation by BrdU incorporation in PAH fibroblasts; type: cell-based, Mensch; conditions: PAH-FBs isolated ex vivo, various concentrations, 24 h, vs. DMSO
Source text: (§1) Diese Untersuchungen führten zu der Erkenntnis, dass die epigenetische Regulation der entwicklungsbedingten TF-Expression in der Lunge durch Modulation der EP300/CREBBP-Funktion rückgängig gemacht werden kann. Die Wirkung des niedermolekularen Inhibitors (Substanz, Wirkstoff) CCS1477 auf die Proliferation von Gefäßzellen, die Apoptose sowie die Gen- und Proteinexpression wurde mit Hilfe geeigneter Assays nach der Transfektion untersucht. Nachdem Zellen zur Subkonfluenz gewachsen sind, wurde ihnen mit steigenden Konzentrationen der selektive EP300-Inhibitor CCS1477 (Chemietek, Katalognummer: CT-CCS1477) hinzugefügt. Die aus PAH-Patienten isolierten FBs wurden also mit dem isoformselektiven HAT-Inhibitor CCS1477 behandelt. […]
(§2) • Abbildung 1: Umkehrung von PAH-Phänotypen durch therapeutische Modulation der dysregulierten HATs EP300 und CREBBP ex vivo • A: PAH-FBs wurden mit siRNAs (siP300) behandelt, die auf EP300 abzielen (n=3), um die genspezifische funktionelle Rolle von EP300 bei der Hyperproliferation ex vivo 48 Stunden nach der Transfektion zu untersuchen. […] Skalenbalken: 50 µm. • E: Die Wirkung der P300-Inhibition (200 µM) auf den Gefäßumbau wurde durch Quantifizierung der prozentualen medialen Wanddicke in den mit dem EP300/CREBBP-Inhibitor CCS1477 inkubierten PCLS im Vergleich zu den mit DMSO inkubierten Kontrollen bewertet. […]

[2] = system: PAH-SMCs; test: Apoptosis in PAH smooth muscle cells; type: cell-based, Mensch; conditions: vs. DMSO
Source text: (§3) Diese Untersuchungen führten zu der Erkenntnis, dass die epigenetische Regulation der entwicklungsbedingten TF-Expression in der Lunge durch Modulation der EP300/CREBBP-Funktion rückgängig gemacht werden kann. Die Wirkung des niedermolekularen Inhibitors (Substanz, Wirkstoff) CCS1477 auf die Proliferation von Gefäßzellen, die Apoptose sowie die Gen- und Proteinexpression wurde mit Hilfe geeigneter Assays nach der Transfektion untersucht. Nachdem Zellen zur Subkonfluenz gewachsen sind, wurde ihnen mit steigenden Konzentrationen der selektive EP300-Inhibitor CCS1477 (Chemietek, Katalognummer: CT-CCS1477) hinzugefügt. Die aus PAH-Patienten isolierten FBs wurden also mit dem isoformselektiven HAT-Inhibitor CCS1477 behandelt. Gleichzeitig wurde den Zellen das Lösungsmittel DMSO (Sigma) mit entsprechenden Konzentrationen hinzugefügt.
(§4) PAH-FBs wurden mit verschiedenen Konzentrationen der Substanz CCS1477 oder dem Lösungsmittel DMSO inkubiert, um die Zellproliferation und die Induktion von Apoptose 24 Stunden danach zu untersuchen. […]
(§5) Das therapeutische Potenzial der EP300/CREBBP-Hemmung durch die Substanz CCS1477 wurde untersucht. […] Die Wirkung der EP300-Hemmung auf das vaskuläre Remodelling wurde durch Quantifizierung der prozentualen medialen Wanddicke in den mit der Substanz CCS1477 inkubierten PCLS im Vergleich zu den mit DMSO inkubierten Kontrollen bewertet. […]

[3] = system: PAH-FBs; test: Apoptosis by Cell Death Detection ELISAPLUS in PAH fibroblasts; type: cell-based, Mensch; conditions: PAH-FBs isolated ex vivo, various concentrations, 24 h, vs. DMSO
Source text: as §1, §2

[4] = system: PAH-PCLS; test: Vascular remodelling (medial wall thickness) in precision-cut lung slices ex vivo; type: cell-based, Mensch; conditions: human PAH-PCLS, 200 µM on days 2 and 6, fixed day 10, vessels 20-150 µm, vs. DMSO
Source text: Lungengewebeproben wurden von Patienten mit IPAH entnommen. Aus den mit 3% niedrigschmelzender Agarose gefüllten Lungenproben von Patienten mit IPAH wurden mit einem Vibratom (Leica Biosystems) Gewebeschnitte (400 µm dick) angefertigt. Die Lungengewebeschnitte wurden in DMEM-GlutaMAX-Medium mit 10 % fetalem Kälberserum, 1 % Penicillin/Streptomycin und 0,1 % Amphotericin B (Thermo Fisher Scientific) kultiviert, und die Behandlung wurde am zweiten Tag eingeleitet. Die Substanz CCS1477 wurde in einer Konzentration von 200 µM an den Tagen 2 und 6 verabreicht. Am 10. Tag wurde das Gewebe in 4% Paraformaldehyd (Roti-Histofix; Carl Roth) fixiert und in Paraffin eingebettet. Die mediale Wanddicke wurde in allen Gefäßen mit einer Größe von 20-150 µm in den Lungenschnitten gemessen.
as §5, with “untersucht. Dazu wurde die Wirksamkeit auf PAH-FBs und PAH-SMCs geprüft, die aus den Lungenarterien von menschlichen PAH-Patienten und aus den Lungenarterien von Ratten mit MCT-PAH (Rattenmodell mit Monocrotalin) isoliert wurden.” for “untersucht.”

[5] = system: FHR-PAH; test: FHR-PAH rat model: right heart catheterisation and histology; type: in vivo, Fawn-hooded hypertensive Ratten; conditions: FHR-PAH rats, three times weekly for two weeks
Source text: (§6) Um das therapeutische Potenzial der EP300/CREBBP-Hemmung in vivo weiter zu erforschen, haben die Erfinder Versuchstiere in drei verschiedenen Nagetiermodellen mit etablierter PAH mit der Substanz CCS1477 behandelt, wobei CCS1477 durch orale Verabreichung über zwei Wochen lang dreimal wöchentlich verabreicht wurde. Es wurden folgende drei verschiedenen Nagetiermodelle für eine PAH (FHR-PAH, MCT-PAH und SuHx-PAH) getestet: • Fawn-hooded hypertensive Ratten (FHR): Das ist ein genetischer Rattenstamm, bei dem PAH im Alter spontan auftritt und der ähnliche PAH-Anomalien aufweist, wie sie bei IPAH bei Menschen nach 40 Wochen auftreten. • Durch Monocrotalin (MCT) induziertes PAH-Rattenmodell. • Ein SUGEN5416/chronische Hypoxie (SuHx)-Rattenmodell für PAH, bei dem die Ratten eine einmalige Injektion von SUGEN5416 erhielten und anschließend einer chronischen Hypoxie (10% O2) ausgesetzt wurden (SuHx-PAH).
(§7) Für die MCT-PAH wurden männlichen und weiblichen SD-Ratten (Sprague-Dawley-Ratten) subkutan 60 mg/kg MCT (Sigma, Katalog: C2401) injiziert, um PAH zu induzieren. Bei der SuHx-PAH erhielten SD-Ratten eine einmalige subkutane Injektion von SUGEN5416 (20 mg/kg) und wurden drei Wochen lang einer normobaren Hypoxie ausgesetzt, bevor sie für zwei Wochen an die Raumluft zurückkehrten. Zwei Wochen nach der MCT-Injektion bzw. drei Wochen nach der SUGEN5416-Injektion (sobald PAH festgestellt wurde) wurden die Ratten nach dem Zufallsprinzip in vier Gruppen eingeteilt und erhielten zwei Wochen lang dreimal wöchentlich entweder Vehikel (Verabreichung von 1 % Methylcellulose in destilliertem Wasser oder intratracheale Vernebelung von 4 % DMSO in PBS als Negativkontrolle), CCS1477 (Verabreichung von 10 mg/kg in 1 % Methylcellulose + destilliertem Wasser). Einjährige männliche und weibliche FHR-Ratten mit etablierter PAH wurden in dieselben vier Gruppen wie beim MCT-Modell eingeteilt und denselben Behandlungsmethoden unterzogen. Nach zweiwöchiger Behandlung wurde eine Rechtsherzkatheteruntersuchung bei geschlossenem Thorax durchgeführt, um folgende hämodynamischen Daten zu erfassen: Systolischer Rechtsventrikulärer Druck (RVSP), mittlerer PA-Druck (mPAP), Herzzeitvolumen (CO) und Schlagvolumen (SV). Der Gesamtwiderstand der Lunge (TPR) wurde durch Division von mPAP durch CO ermittelt. Nach der hämodynamischen Messung wurden den Ratten Gewebeproben entnommen. Die Experimente wurden gemäß den Richtlinien des Canadian Council on Animal Care durchgeführt. Alle Protokolle wurden von der institutionellen Ethikkommission für Tiere (Tierschutzausschuss der Universität Laval) geprüft und genehmigt (Protokollnummer 2019-018-2). Alle Experimente folgten den Richtlinien für die präklinische Forschung bei PAH.
(§8) • Abbildung 1: Umkehrung von PAH-Phänotypen durch therapeutische Modulation der dysregulierten HATs EP300 und CREBBP ex vivo • A: PAH-FBs wurden mit siRNAs (siP300) behandelt, die auf EP300 abzielen (n=3), um die genspezifische funktionelle Rolle von EP300 bei der Hyperproliferation ex vivo 48 Stunden nach der Transfektion zu untersuchen. Die Zellproliferation wurde durch BrdU-Inkorporation bestimmt. Die Werte wurden auf scrambled siRNA (siScr) normalisiert und sind als Mittelwert ± SD angegeben (n=3, ungepaarter t-Test; *P < 0,05 vs. scrambled siRNA). • B: PAH-FBs wurden mit verschiedenen Konzentrationen des EP300/CREBBP-Inhibitors CCS1477 oder dem Lösungsmittel DMSO inkubiert, um die Wirkung der selektiven EP300/CREBBP-Inhibition auf die Zellproliferation (bewertet durch BrdU-Inkorporation) zu untersuchen. Als Vergleichssubstanz wurde ein weiterer EP300/CREBBP-Inhibitor (SGC-CBP30) parallel dazu unter denselben Bedingungen inkubiert. […]

[6] = system: SuHx-PAH; test: SuHx-PAH rat model (SUGEN5416/chronic hypoxia): right heart catheterisation and histology; type: in vivo, SD-Ratten; conditions: three times weekly for two weeks
Source text: as §6, §7, §8

[7] = system: MCT-PAH; test: MCT-PAH rat model: right heart catheterisation and histology; type: in vivo, SD-Ratten; conditions: MCT-PAH rats, three times weekly for two weeks
Source text: as §6, §7, §8

[8] = system: PAH-SMCs; test: Cell proliferation (hyperproliferative phenotype) in PAH smooth muscle cells; type: cell-based, Mensch; conditions: vs. DMSO
Source text: as §3, §4, §5

[9] = 10 mg/kg in 1 % methylcellulose, oral, vs. vehicle
[10] = 10 mg/kg oral, TPR = mPAP divided by CO
[11] = SUGEN5416/chronic hypoxia PAH rats, 10 mg/kg oral, vs. vehicle
[12] = SuHx-PAH rats, 10 mg/kg in 1 % methylcellulose, oral, vs. vehicle

`CO[C@H]1CC[C@H](n2c([C@@H]3CCCC(=O)N3c3ccc(F)c(F)c3)nc3cc(-c4c(C)noc4C)ccc32)CC1` [CCS1477, (S)-1-(3,4-difluorophenyl)-6-(5-(3,5-dimethylisoxazol-4-yl)-1-((1r,4S)-4-methoxycyclohexyl)-1H-benzo[d]imidazol-2-yl)piperidin-2-on] was tested, and the “hyperproliferativer Phänotyp (Zellproliferation, Einbau von BrdU)” value [1] was “schwächte den hyperproliferativen Phänotyp und die Apoptoserate von PAH-FBs und PAH-SMCs deutlich ab”, the Apoptoserate [2] was “schwächte den hyperproliferativen Phänotyp und die Apoptoserate von PAH-FBs und PAH-SMCs deutlich ab” and the “Apoptoserate (Induktion von Apoptose, Cell Death Detection ELISAPLUS)” value [3] was “schwächte den hyperproliferativen Phänotyp und die Apoptoserate von PAH-FBs und PAH-SMCs deutlich ab”. For the same molecule, the “mediale Wanddicke der umgestalteten PAs” value [4] was “signifikante Verringerung der medialen Wanddicke”, the RVSP [5, 9] was “signifikanten Senkung” and the mPAP [5, 9] was “signifikanten Senkung”. The “mediale Wanddicke der distalen PAs” value ([5]; 10 mg/kg oral) was “signifikant verringert”, the “molekulare Marker für Myokardhypertrophie” value ([5]; 10 mg/kg oral) was “signifikant abgeschwächt” and the CO ([5]; 10 mg/kg oral, vs. vehicle) was “verbesserten sich nach der Behandlung mit der Substanz CCS1477 bei FHR-PAH und MCT-PAH signifikant”. For the same molecule, the SV ([5]; 10 mg/kg oral, vs. vehicle) was “verbesserten sich nach der Behandlung mit der Substanz CCS1477 bei FHR-PAH und MCT-PAH signifikant”, the TPR [5, 10] was “signifikanten Senkung” and the CO [6, 11] was “verbesserte CO und SV auch bei SUGEN5416/chronischer Hypoxie-PAH signifikant”. The SV [6, 11] was “verbesserte CO und SV auch bei SUGEN5416/chronischer Hypoxie-PAH signifikant”, the RVSP [6, 12] was “signifikanten Senkung” and the mPAP [6, 12] was “signifikanten Senkung”. For the same molecule, the “mediale Wanddicke der distalen PAs” value ([6]; SuHx-PAH rats, 10 mg/kg oral) was “signifikant verringert”, the TPR ([6]; SuHx-PAH rats, 10 mg/kg oral, TPR = mPAP divided by CO) was “signifikanten Senkung” and the RVSP [7, 9] was “signifikanten Senkung”. The mPAP [7, 9] was “signifikanten Senkung”, the “mediale Wanddicke der distalen PAs” value ([7]; 10 mg/kg oral) was “signifikant verringert” and the CO ([7]; 10 mg/kg oral, vs. vehicle) was “verbesserten sich nach der Behandlung mit der Substanz CCS1477 bei FHR-PAH und MCT-PAH signifikant”. The SV ([7]; 10 mg/kg oral, vs. vehicle) was “verbesserten sich nach der Behandlung mit der Substanz CCS1477 bei FHR-PAH und MCT-PAH signifikant”, the TPR [7, 10] was “signifikanten Senkung” and the “hyperproliferativer Phänotyp” value [8] was “schwächte den hyperproliferativen Phänotyp und die Apoptoserate von PAH-FBs und PAH-SMCs deutlich ab”.
